Experimental findings from ChEMBL document CHEMBL1201862, “PubChem BioAssay data set” (2004) are described below.

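A five-concentration, 48-hour dose response in 96-well plates underlies each endpoint, interpolated linearly between surrounding concentrations. GI50: concentration for 50% inhibition of growth.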 Calls of active or inactive are those of the source. Rule as the data show it: active = GI50 up to about 1.1 µM and inactive = higher. A value given as a limit tells only on which side of the number the result lay.

Among the test systems are 786-0; A549; ACHN; CAKI-1; COLO 205; EKVX; HCC 2998; M14; NCI-H522; RPMI-8226; SF-295; SK-MEL-28; SK-OV-3; SN12C; SNB-75; LOX IMVI; RXF 393; HOP-92.
Experiment in all cases: growth of human tumour cells (NCI), 48 h

With `COc1ccc(/C=C2\CCc3ccccc3C2=O)cc1OC`, the GI50 with 786-0 is 34.5 µM (inactive); in the test on A549 it was 38.2 µM (inactive); with ACHN, 24.5 µM (inactive); in the test on CAKI-1 it was 31.6 µM (inactive); in the test with COLO 205 it was 19.5 µM (inactive); in the test on EKVX it was 51.8 µM (inactive). Further, the GI50 in the test on HCC 2998 is 45.5 µM (inactive); in the test on M14, 22.4 µM (inactive); in the test on NCI-H522, 17.1 µM (inactive); in the test with RPMI-8226, 13.9 µM (inactive); in the test with SF-295, 32.9 µM (inactive); with SK-MEL-28, 25.3 µM (inactive). Besides, the GI50 is 18.7 µM (inactive) with SK-OV-3, 25.2 µM (inactive) in the test on SN12C and 21.4 µM (inactive) in the test with SNB-75.

As for `O=C(O)c1cc(Cl)cc(NC(=O)C(Cl)Cl)c1Cl`, the GI50 with 786-0, with A549, in the test with ACHN, in the test with CAKI-1, with COLO 205 and in the test with EKVX was > 100 µM (inactive) throughout. Moreover, the GI50 in the test on HCC 2998, in the test on LOX IMVI, in the test with M14, in the test with NCI-H522, in the test with RPMI-8226 and in the test with RXF 393 was > 100 µM (inactive) in each case. Moreover, the GI50 in the test on SF-295, in the test on SK-MEL-28, with SK-OV-3, with SN12C and with SNB-75 was > 100 µM (inactive) in each case.

`O=C(NC1CCCC1=O)c1ccccc1` (stereo not given): the GI50 with 786-0, in the test with A549, with ACHN, in the test with CAKI-1, in the test on EKVX and in the test on HOP-92 was > 100 µM (inactive) in each case. Further, the GI50 in the test with M14, with RXF 393, with SF-295, with SK-MEL-28, in the test on SK-OV-3 and with SN12C was > 100 µM (inactive) each time. Moreover, the GI50 in the test with SNB-75 was 31.5 µM (inactive).

Regarding `CC(C)=CC(=O)Cc1nc2ccc([N+](=O)[O-])cc2[nH]c1=O`, the GI50 with 786-0, in the test with A549, in the test with ACHN, with CAKI-1, in the test with COLO 205 and in the test with EKVX was > 100 µM (inactive) in each case. Besides, the GI50 was > 100 µM (inactive) with HOP-92; > 100 µM (inactive) in the test with LOX IMVI; > 100 µM (inactive) in the test with M14; 23.9 µM (inactive) in the test on NCI-H522; 17.3 µM (inactive) with RPMI-8226; > 100 µM (inactive) in the test on RXF 393. In addition, the GI50 is > 100 µM (inactive) with SF-295; > 100 µM (inactive) in the test on SK-MEL-28; > 100 µM (inactive) with SK-OV-3; > 100 µM (inactive) with SN12C; 18.5 µM (inactive) with SNB-75.

Turning to `Cc1ccc(N2C(=O)/C(=C/c3ccc(N(CCC#N)CCC#N)cc3C)N=C2c2cc([N+](=O)[O-])ccc2Cl)cc1`, the GI50 was > 100 µM (inactive) in the test with 786-0; > 100 µM (inactive) in the test with A549; > 100 µM (inactive) in the test with ACHN; 56 µM (inactive) in the test on CAKI-1; > 100 µM (inactive) in the test with COLO 205; > 100 µM (inactive) with HCC 2998. The GI50 with HOP-92, with M14, in the test on NCI-H522, in the test with RPMI-8226, in the test with SF-295 and in the test with SK-MEL-28 was > 100 µM (inactive) in each case. The GI50 with SK-OV-3, in the test on SN12C and with SNB-75 was > 100 µM (inactive) in each case.

As for `Brc1ccc(-c2cc3c(cc2C2SCCS2)OCO3)cc1`, the GI50 was 26.9 µM (inactive) with 786-0; 18.2 µM (inactive) with A549; 16.5 µM (inactive) in the test on ACHN; 27.3 µM (inactive) in the test with COLO 205; 10.7 µM (inactive) in the test on EKVX; 29 µM (inactive) with HCC 2998. The GI50 with LOX IMVI was 0.359 µM (active); with M14, 41.6 µM (inactive); in the test with NCI-H522, 10.9 µM (inactive); with RXF 393 it was 12.9 µM (inactive); with SF-295 it was 28.2 µM (inactive); in the test with SK-MEL-28, > 100 µM (inactive). The GI50 in the test on SK-OV-3 is 21.3 µM (inactive); in the test with SN12C, 29 µM (inactive); with SNB-75, 1.25 µM (inactive).

`CC(C)(C)C1=CC(CCC(=O)Nc2ccccc2[N+](=O)[O-])=NC(S)N1` (stereo not given): the GI50 with 786-0, in the test on A549, with ACHN, in the test on CAKI-1, in the test on COLO 205 and in the test with EKVX was > 100 µM (inactive) in each case. In addition, the GI50 with HCC 2998, with HOP-92, with LOX IMVI, with M14, with RXF 393 and with SF-295 was > 100 µM (inactive) throughout. For the same compound, the GI50 with SK-MEL-28, with SK-OV-3 and in the test on SN12C was > 100 µM (inactive) each time.

Turning to `Cc1ccc(S(=O)(=O)N/N=C/CN2C(=O)c3ccccc3C2=O)cc1`, the GI50 with 786-0, in the test with A549, with ACHN, with CAKI-1, with COLO 205 and in the test on EKVX was > 100 µM (inactive) each time. Besides, the GI50 with HCC 2998, in the test on LOX IMVI, with M14, with NCI-H522, with RPMI-8226 and in the test on SF-295 was > 100 µM (inactive) in each case. Further, the GI50 with SN12C and with SNB-75 was > 100 µM (inactive) each time.

For the compound `O=C(CC1(O)C(=O)Nc2ccccc21)c1ccc(F)cc1` (stereo not given), the GI50 in the test on 786-0, in the test with A549, in the test on ACHN, in the test on CAKI-1, with COLO 205 and with EKVX was > 100 µM (inactive) each time. Further, the GI50 in the test with HOP-92, in the test on LOX IMVI, with M14, in the test on NCI-H522, with RPMI-8226 and with RXF 393 was > 100 µM (inactive) throughout. The GI50 with SF-295, in the test on SK-MEL-28, in the test on SK-OV-3, with SN12C and in the test with SNB-75 was > 100 µM (inactive) throughout.

As to `CNC(=O)C1CCc2nnc(-c3ccccc3)n21` (stereo not given), the GI50 is > 100 µM (inactive) in the test with 786-0; > 100 µM (inactive) in the test on A549; > 100 µM (inactive) in the test on ACHN; > 100 µM (inactive) with CAKI-1; > 100 µM (inactive) in the test with COLO 205; 55.2 µM (inactive) in the test on EKVX. The GI50 in the test with HCC 2998, in the test on M14, in the test on NCI-H522, in the test with RPMI-8226, with RXF 393 and in the test with SK-MEL-28 was > 100 µM (inactive) each time. Besides, the GI50 in the test on SK-OV-3, in the test with SN12C and in the test on SNB-75 was > 100 µM (inactive) throughout.

On to `Nc1ncn(C2C=C(CO)C(O)C2O)c(=O)n1` (stereo not given), for which the GI50 was 63.1 µM (inactive) in the test with 786-0; 52.4 µM (inactive) in the test with A549; 46.5 µM (inactive) in the test on ACHN; 40.7 µM (inactive) in the test with CAKI-1; 29.3 µM (inactive) in the test on COLO 205; > 100 µM (inactive) in the test on EKVX. Moreover, the GI50 with HCC 2998 is 89.7 µM (inactive); in the test on M14, > 100 µM (inactive); with NCI-H522, 37.2 µM (inactive); with RPMI-8226, 37 µM (inactive); in the test with RXF 393, > 100 µM (inactive); with SK-MEL-28, > 100 µM (inactive). The GI50 in the test on SK-OV-3 is > 100 µM (inactive); with SN12C, 32.4 µM (inactive); in the test with SNB-75, > 100 µM (inactive).

`CC(=O)Nc1ccc(/C=C/C(=O)c2sc(-c3nc(C)c(C(=O)/C=C/c4ccc(NC(C)=O)cc4)s3)nc2C)cc1`: the GI50 in the test on 786-0, with A549, with ACHN, in the test on CAKI-1, in the test with COLO 205 and in the test on EKVX was > 100 µM (inactive) each time. Also, the GI50 in the test with HCC 2998, in the test on LOX IMVI, with M14, in the test with NCI-H522, in the test on RXF 393 and in the test with SF-295 was > 100 µM (inactive) each time. The GI50 in the test on SK-MEL-28, with SK-OV-3 and in the test on SN12C was > 100 µM (inactive) in each case.

Consider `O=C1NC(=O)C2C1C1C=C3c4ccccc4N(c4ccccc4)C32[C@H]2C(=O)NC(=O)[C@@H]12` (stereo not given in full), for which the GI50 in the test with 786-0, with A549, with ACHN, in the test on CAKI-1, with COLO 205 and with EKVX was > 100 µM (inactive) throughout. Also, the GI50 in the test on HCC 2998, with HOP-92, in the test with LOX IMVI, in the test on M14, in the test on NCI-H522 and in the test on RPMI-8226 was > 100 µM (inactive) in each case. In addition, the GI50 with SF-295, with SK-MEL-28, in the test with SK-OV-3, in the test with SN12C and in the test with SNB-75 was > 100 µM (inactive) throughout.
